Data on eight compounds can be found in patent US4025506A, “Broad spectrum antibiotics” (Pfizer Inc., priority 1975, dated 1977).

Assay [1] has as its system P. mirabilis 57C0015. The assay is described as follows: In vitro antibacterial MIC, P. mirabilis 57C0015. The class given is cell-based. The settings on record: Proteus mirabilis. From the text: (§1) The in vitro activity of the herein described compounds renders them useful for topical application in the form of ointments, creams and the like, or for sterilization purposes, e.g., sick-room utensils.
(§2) Table I compares the in vitro profile of 6-[D-2-phenyl-2-(amidinopropionamido)acetamido]penicillanic acid (PAP) with ampicillin (AMP) and carbenicillin (CAR).

The test system of assay [2] is A. aerogenes 55A002. In words: In vitro antibacterial MIC, A. aerogenes 55A002. The assay is classed as cell-based. The settings on record: Klebsiella aerogenes, nutrient broth, Table I.
Excerpt: as §1, §2

Assay [3] relates to Kleb. penumoniae 53A015. In words: In vitro antibacterial MIC, Kleb. penumoniae 53A015. The assay is classed as cell-based. The settings on record: nutrient broth, Table I.
Excerpt: as §1, §2

For assay [4], the system named is E. coli 51A002. The assay is described as follows: In vitro antibacterial MIC, E. coli 51A002. The class given is cell-based. The settings on record: Escherichia coli, nutrient broth, Table I.
Excerpt: as §1, §2

Assay [5] relates to E. coli 51A266. In words: In vivo protection against experimental E. coli infection in mice (Table II). The settings on record: doses 0.5, 4 and 24 hours after inoculation. As to the method: Table II presents the in vivo comparison data for the three compounds contained in Table I against several experimental infections in mice.
The values (% survivors) are obtained under standard conditions known to those skilled in the art. For the E. coli organism, the test compound is administered to the infected mice by a multiple dosing regimen in which the first dose is given 0.5 hour after inoculation and is repeated 4 and 24 hours later.

Assay [6] concerns Ps. aeruginosa 52A490. The assay is described as follows: In vitro antibacterial MIC, Ps. aeruginosa 52A490. The class given is cell-based. The settings on record: Pseudomonas aeruginosa.
Excerpt: as §1, §2

Assay [7] has as its system E. coli 51A266. In words: In vitro antibacterial MIC, E. coli 51A266. The assay is classed as cell-based. The settings on record: Escherichia coli.
Excerpt: as §1, §2

In assay [8] the test system is A. aerogenes. In words: In vitro antibacterial MIC, A. aerogenes. The class given is cell-based. The settings on record: Klebsiella aerogenes.
Excerpt: as §1, §2

The test system of assay [9] is Kleb. pneumoniae 53A009. In words: In vitro antibacterial MIC, Kleb. pneumoniae 53A009. The assay is classed as cell-based. The settings on record: Klebsiella pneumoniae.
Excerpt: as §1, §2

The test system of assay [10] is P. mirabiis 57C015. In words: In vitro antibacterial MIC, P. mirabiis 57C015. The class given is cell-based.
Excerpt: as §1, §2

The test system of assay [11] is S. aureus 01A005. The assay is described as follows: In vitro antibacterial MIC, S. aureus 01A005. The settings on record: Staphylococcus aureus. The assay is classed as cell-based.
Excerpt: as §1, §2

Assay [12] has as its system Ser. marcescens 63A001. In words: In vitro antibacterial MIC, Ser. marcescens 63A001. The assay is classed as cell-based. The settings on record: Serratia marcescens.
Excerpt: as §1, §2

For assay [13], the system named is E. coli 51A266. In words: In vivo protection against E. coli infection in mice (Table IV). The settings on record: doses 0.5, 4 and 24 hours after inoculation. As to the method: Table IV presents in vivo comparison data for the four compounds in Table III against E. coli infections in mice.
The values, reported as % survivors, are obtained under standard conditions familiar to those skilled in the art. The test compound is administered to the infected mice by a multiple dosing regimen in which the first dose is given 0.5 hour after inoculation and is repeated 4 and 24 hours later.

In assay [14] the test system is Ps. aeruginosa 52A104. In words: In vitro antibacterial MIC, Ps. aeruginosa 52A104. The class given is cell-based. The settings on record: Pseudomonas aeruginosa.
Excerpt: as §1, §2

Assay [15] concerns gram-negative bacteria. The settings on record: cited from earlier work.
Setting [16] is: P. mirabilis 57C0015, nutrient broth, Table I, read-out: MIC.

Each structure is given as a SMILES string. In brackets after ≈: the same amount, converted by molar mass. Where two headings read alike, the source gives them in different places.

On to `CC1(C)S[C@@H]2[C@H](NC(=O)[C@H](NC(=O)CCC(=N)N)c3ccccc3)C(=O)N2[C@H]1C(=O)O` [PAP, 6-[D-2-phenyl-2-(amidinopropionamido)acetamido]penicillanic acid], for which the minimal inhibitory concentration (MIC) is 6.25 µg/mL (≈ 14 µM) in assay [1] (setting [16]), 100 µg/mL (≈ 223 µM) in assay [2], over 200 µg/mL in assay [3] and 200 µg/mL (≈ 447 µM) in assay [4]. Moreover, the “% Protection (% survivors)” value in assay [5] (PO, 50 mg./kg.) stood at 20%; in assay [5] (PO, 200 mg./kg.) it was 30%; in assay [5] (SC, 50 mg./kg.) it was 80%; in [5] (SC, 200 mg./kg.) it was 80%.

In turn, `CC1(C)S[C@@H]2[C@H](NC(=O)[C@H](N)c3ccccc3)C(=O)N2[C@H]1C(=O)O` [AMP, ampicillin] yielded a minimal inhibitory concentration (MIC) in assay [1] (57C0015) of 1.56 µg/mL (≈ 4.46 µM). The “% Protection (% survivors)” value is recorded as 80% in [5] (PO, 50 mg./kg.); 90% in assay [5] (PO, 200 mg./kg.); 80% in [5] (SC, 50 mg./kg.); 90% in assay [5] (SC, 200 mg./kg.).

As to `CC1(C)S[C@@H]2[C@H](NC(=O)C(NC(=O)CNC(=N)c3ccc(Cl)cc3)c3ccccc3)C(=O)N2[C@H]1C(=O)O` (some centres unmarked) [X = Cl], the MIC in assay [6] is 12.5 µg/mL (≈ 23 µM); in assay [7] it was 0.78 µg/mL (≈ 1.43 µM); in [8] it was 3.12 µg/mL (≈ 5.73 µM); in assay [9] it was 12.5 µg/mL (≈ 23 µM); in assay [10], 3.12 µg/mL (≈ 5.73 µM); in [11] it was 0.39 µg/mL (≈ 0.717 µM). Moreover, the figures for the MIC in [12] and in assay [14] were 6.25 µg/mL (≈ 11.5 µM) and 25 µg/mL (≈ 46 µM), respectively. For the same compound, the “% Survivors” value in assay [13] (PO, 25 mg./kg.) turned out to be 0%; in [13] (PO, 50 mg./kg.), 0%; in assay [13] (PO, 200 mg./kg.), 0%; in assay [13] (SC, 25 mg./kg.) it was 50%; in assay [13] (SC, 50 mg./kg.), 60%; in assay [13] (SC, 200 mg./kg.), 70%.

Consider `CC1(C)S[C@@H]2[C@H](NC(=O)C(NC(=O)CNC(=N)c3ccc(Br)cc3)c3ccccc3)C(=O)N2[C@H]1C(=O)O` (some centres unmarked) [X = Br], for which the MIC in assay [6] was 6.25 µg/mL (≈ 10.6 µM); in assay [7], 0.39 µg/mL (≈ 0.663 µM); in assay [8], 3.12 µg/mL (≈ 5.3 µM); in assay [9] it was 12.5 µg/mL (≈ 21.2 µM); in assay [10], 3.12 µg/mL (≈ 5.3 µM); in assay [11], 0.39 µg/mL (≈ 0.663 µM). In addition, the figures for the MIC in assay [12] and in assay [14] were 6.25 µg/mL (≈ 10.6 µM) and 25 µg/mL (≈ 42.5 µM), respectively. In addition, the “% Survivors” value is 10% in assay [13] (PO, 25 mg./kg.); 0% in assay [13] (PO, 50 mg./kg.); 0% in [13] (PO, 200 mg./kg.); 50% in [13] (SC, 25 mg./kg.); 60% in [13] (SC, 50 mg./kg.); 90% in assay [13] (SC, 200 mg./kg.).

On to `CC1(C)S[C@@H]2[C@H](NC(=O)C(NC(=O)CNC(=N)c3ccc(F)cc3)c3ccccc3)C(=O)N2[C@H]1C(=O)O` (some centres unmarked) [X = F], for which the minimal inhibitory concentration (MIC) turned out to be 3.12 µg/mL (≈ 5.91 µM) in [6]; 1.56 µg/mL (≈ 2.96 µM) in assay [7]; 25 µg/mL (≈ 47.4 µM) in assay [8]; 25 µg/mL (≈ 47.4 µM) in assay [9]; 3.12 µg/mL (≈ 5.91 µM) in assay [10]; 0.39 µg/mL (≈ 0.739 µM) in assay [11]. The values for the minimal inhibitory concentration (MIC) in assay [12] and in [14] were 6.25 µg/mL (≈ 11.8 µM) and 12.5 µg/mL (≈ 23.7 µM), respectively. Further, the “% Survivors” value stood at 10% in assay [13] (PO, 25 mg./kg.); 0% in [13] (PO, 50 mg./kg.); 10% in assay [13] (PO, 200 mg./kg.); 50% in assay [13] (SC, 25 mg./kg.); 70% in assay [13] (SC, 50 mg./kg.); 90% in assay [13] (SC, 200 mg./kg.).

In the case of `CC1(C)S[C@@H]2[C@H](NC(=O)C(C(=O)O)c3ccccc3)C(=O)N2[C@H]1C(=O)O` (some centres unmarked) [CAR, carbenicillin], the values for the MIC in assay [1] (setting [16]) and in assay [3] were 1.25 µg/mL (≈ 3.3 µM) and over 200 µg/mL, respectively. Also, the “% Protection (% survivors)” value is recorded as 10% in assay [5] (PO, 50 mg./kg.); 70% in assay [5] (PO, 200 mg./kg.); 90% in [5] (SC, 50 mg./kg.); 90% in assay [5] (SC, 200 mg./kg.).

`CC1(C)S[C@@H]2[C@H](NC(=O)C(NC(=O)CNC(=N)c3ccccc3)c3ccccc3)C(=O)N2[C@H]1C(=O)O` (some centres unmarked) [X = H]: the MIC in assay [6] came to 12.5 µg/mL (≈ 24.5 µM); in assay [7], 12.5 µg/mL (≈ 24.5 µM); in assay [8], 25 µg/mL (≈ 49.1 µM); in [9], 100 µg/mL (≈ 196 µM); in [10] it was 12.5 µg/mL (≈ 24.5 µM); in assay [11], 0.78 µg/mL (≈ 1.53 µM). For the same compound, the values for the MIC in [12] and in [14] were 12.5 µg/mL (≈ 24.5 µM) and 25 µg/mL (≈ 49.1 µM), respectively. The “% Survivors” value came out at 0% in assay [13] (PO, 25 mg./kg.); 0% in [13] (PO, 50 mg./kg.); 10% in assay [13] (PO, 200 mg./kg.); 10% in [13] (SC, 25 mg./kg.); 70% in assay [13] (SC, 50 mg./kg.); 90% in assay [13] (SC, 200 mg./kg.).

In the case of `CC1(C)S[C@@H]2[C@H](NC(=O)C(C(=O)O)c3ccccc3)C(=O)N2[C@H]1C(=O)O` (stereo partly drawn) [α-Carboxybenzylpenicillin], the “utility via oral administration (in words)” value in assay [15] (oral) is “limited utility via oral administration”. For the same compound, the “efficacy against gram-negative bacteria (in words)” value in assay [15] (parenteral route) is on record as “greater efficacy against gram-negative bacteria”.

By MIC is commonly meant the least concentration at which growth counts as inhibited.
